Data from patent publication US20050112573A1, “Method of detecting toxic substance” (priority 2001, published 2005).

System: yeast genes (level of expressed mRNA)
Assay: DNA chip analysis of expressed mRNA of yeast genes after 2 h culture with a toxic chemical substance
Assay type: cell-based, Saccharomyces cerevisiae S288C
Method: Yeast (Saccharomyces cerevtisiae S288C (α SUC2mal mel gap2 CUP1)) were cultured at 25° C. on YPD medium (yeast extract 1%, polypepton 2%, glucose 2%). One of toxic chemical substances was added to the cell at logarithmic growth phase, and the cell was further cultured for two hours. Cell was cultured without any chemical substance in the same condition, and was used as control. Concentrations of the chemical substances were defined to inhibit the growth of the yeast but not lead to death.
After the completion of cultivation, the culture was centrifuged to collect the cells. To the cells, sodium acetate buffer (50 mM sodium acetate, 10 mM EDTA, 1% SDS) was added, and the mixture was shaken at 65° C. for five minutes, followed by returning to room temperature, and obtaining the supernatant, which procedure was repeated two times. To the supernatant, ½ amount of a solution of phenol/chloroform was added, and the mixture was centrifuged to give a supernatant, which was added with an equal amount of chloroform, and the mixture was centrifuged to give a supernatant. To the supernatant, an equal amount of isopropanol containing 0.3 M sodium acetate was added, and the mixture was allowed to stand at room temperature for 30 minutes, after which the mixture was centrifuged to give a sediment of the whole RNAs. Seventy % ethanol was added to the sediment, and the mixture was again centrifuged to give a sediment, which was then dried and dissolved in water. mRNA was isolated from the whole RNAs as followings. In view of the fact that a poly A chain is attached to the 3′ terminus of mRNA, a polynucleotide having a poly T structure which was immobilized on the surface of latex beads was used to trap the mRNA, and then the mRNA was washed and eluted with spine column (Oligotex-dT30<Super>mRNA Purification Kit, Takara). Reverse transcription of the mRNA was conducted with a reverse transcriptase (Super Script II Reverse Transcriptase; catalogue No. 18064-014, GibcoBRL) using fluorescence-labeled nucleotides to give cDNAs that were introduced with Cy3-dUTP or Cy5-dUTP during the reverse transcription.
The labeled cDNAs were dissolved in TE buffer (10 mM Tris-HCl/1 mM EDTA, pH8.0), and the solution was dropped on the DNA chip containing the whole genes of yeast (DNA Chip Research Inc. Japan) so that the cDNAs were hybridized on the DNA chip at 65° C. for over 12 hours. The fluoresces intensity of the DNA chip was read with a scanner, and the ratio relative to the fluorescence intensity resulting from the absence of chemical substance was estimated as the following, which is shown in Tables 1 to 9: [formula]
In the Tables, “Intensity” indicated in the rightmost column is a value of the level of expressed mRNA of each gene in control cells as divided by the average level of the expressions of the whole genes.

S=C([S-])NCCNC(=S)[S-].[Zn+2] [(11), zinc N,N′-ethylenebis(dithiocarbamate)]
level of expressed mRNA in the presence of chemical substance/in its absence (gene YAL012W): 4.0
The level of expressed mRNA in the presence of chemical substance/absence: YAL014C (gene YAL014C): 1.7
The level of expressed mRNA in the presence of chemical substance/absence: YAL017W (gene YAL017W): 0.7
The level of expressed mRNA in the presence of chemical substance/absence: YAL018C (gene YAL018C): 0.1
level of expressed mRNA in the presence of chemical substance/in its absence (gene YAL038W): 1.0
level of expressed mRNA in the presence of chemical substance/in its absence (gene YAL044C): 1.4
The level of expressed mRNA in the presence of chemical substance/absence: YAL049C (gene YAL049C): 1.0
level of expressed mRNA in the presence of chemical substance/in its absence (gene YAL054C): 1.3
The level of expressed mRNA in the presence of chemical substance/absence: YAR047C (gene YAR047C): 1.1
The level of expressed mRNA in the presence of chemical substance/absence: YAR064W (gene YAR064W): 0.7
level of expressed mRNA in the presence of chemical substance/in its absence (gene YAR071W): 1.1
level of expressed mRNA in the presence of chemical substance/in its absence (gene YBL001C): 2.3
The level of expressed mRNA in the presence of chemical substance/absence: YBL044W (gene YBL044W): 0.6
The level of expressed mRNA in the presence of chemical substance/absence: YBL100C (gene YBL100C): 0.9
The level of expressed mRNA in the presence of chemical substance/absence: YBR012C (gene YBR012C): 0.7
The level of expressed mRNA in the presence of chemical substance/absence: YBR013C (gene YBR013C): 1.2
level of expressed mRNA in the presence of chemical substance/in its absence (gene YBR014C): 1.8
level of expressed mRNA in the presence of chemical substance/in its absence (gene YBR023C): 0.9
level of expressed mRNA in the presence of chemical substance/in its absence (gene YBR029C): 0.7
level of expressed mRNA in the presence of chemical substance/in its absence (gene YBR035C): 2.0
level of expressed mRNA in the presence of chemical substance/in its absence (gene YBR050C): 1.1
The level of expressed mRNA in the presence of chemical substance/absence: YBR051W (gene YBR051W): 0.1
The level of expressed mRNA in the presence of chemical substance/absence: YBR063C (gene YBR063C): 0.6
The level of expressed mRNA in the presence of chemical substance/absence: YBR066C (gene YBR066C): 1.2
level of expressed mRNA in the presence of chemical substance/in its absence (gene YBR068C): 0.8
level of expressed mRNA in the presence of chemical substance/in its absence (gene YBR111C): 1.5
The level of expressed mRNA in the presence of chemical substance/absence: YBR124W (gene YBR124W): 0.4
The level of expressed mRNA in the presence of chemical substance/absence: YBR129C (gene YBR129C): 1.4
level of expressed mRNA in the presence of chemical substance/in its absence (gene YBR145W): 1.1
The level of expressed mRNA in the presence of chemical substance/absence: YBR162C (gene YBR162C): 0.8
level of expressed mRNA in the presence of chemical substance/in its absence (gene YBR183W): 1.9
level of expressed mRNA in the presence of chemical substance/in its absence (gene YBR222C): 1.3
The level of expressed mRNA in the presence of chemical substance/absence: YBR255W (gene YBR255W): 1.5
The level of expressed mRNA in the presence of chemical substance/absence: YBR281C (gene YBR281C): 1.4
The level of expressed mRNA in the presence of chemical substance/absence: YBR287W (gene YBR287W): 2.0
level of expressed mRNA in the presence of chemical substance/in its absence (gene YBR299W): 2.4
level of expressed mRNA in the presence of chemical substance/in its absence (gene YCL009C): 1.5
The level of expressed mRNA in the presence of chemical substance/absence: YCL042W (gene YCL042W): 3.2
The level of expressed mRNA in the presence of chemical substance/absence: YCL044C (gene YCL044C): 1.1
The level of expressed mRNA in the presence of chemical substance/absence: YCL056C (gene YCL056C): 1.5
level of expressed mRNA in the presence of chemical substance/in its absence (gene YCL064C): 1.8
The level of expressed mRNA in the presence of chemical substance/absence: YCR007C (gene YCR007C): 1.1
level of expressed mRNA in the presence of chemical substance/in its absence (gene YCR037C): 0.8
level of expressed mRNA in the presence of chemical substance/in its absence (gene YCR048W): 1.2
level of expressed mRNA in the presence of chemical substance/in its absence (gene YCR098C): 1.3
level of expressed mRNA in the presence of chemical substance/in its absence (gene YDL022W): 2.8
The level of expressed mRNA in the presence of chemical substance/absence: YDL046W (gene YDL046W): 2.6
The level of expressed mRNA in the presence of chemical substance/absence: YDL089W (gene YDL089W): 2.0
The level of expressed mRNA in the presence of chemical substance/absence: YDL173W (gene YDL173W): 1.2
The level of expressed mRNA in the presence of chemical substance/absence: YDL193W (gene YDL193W): 1.1
The level of expressed mRNA in the presence of chemical substance/absence: YDL233W (gene YDL233W): 0.7
level of expressed mRNA in the presence of chemical substance/in its absence (gene YDR009W): 0.1
level of expressed mRNA in the presence of chemical substance/in its absence (gene YDR019C): 1.8
The level of expressed mRNA in the presence of chemical substance/absence: YDR071C (gene YDR071C): 1.4
The level of expressed mRNA in the presence of chemical substance/absence: YDR078C (gene YDR078C): 1.1
The level of expressed mRNA in the presence of chemical substance/absence: YDR090C (gene YDR090C): 0.7
The level of expressed mRNA in the presence of chemical substance/absence: YDR109C (gene YDR109C): 0.9
